{"source": "patent US6358929B1", "about": "“Use of a peptide preventing the intolerance reactions of the skin, in particular in cosmetic compositions” (L'Oreal, priority 1998, dated 2002)", "key": {"[1]": {"test_system": "female Balb/C mice", "assay": "Contact hypersensitivity to TNCB, peptide applied topically in a water-in-oil cream", "assay_type": "in vivo, mouse", "settings": "peptide in water-in-oil cream applied to the area to be sensitized 2 hours before sensitization; 24 hours after triggering; positive controls 7×10^−2 mm", "experimental": "The procedure is carried out as in a) above, but the peptide, incorporated in a cream of the water-in-oil type, is applied to the area to be sensitized 2 hours before the sensitization.\n24 hours after the triggering reaction, the increase in the thickness of the ear is on average 3×10^−2 mm in the treated mice and 7×10^−2 mm in the positive controls."}, "[2]": {"test_system": "volunteer patients in whom a contact allergy to nickel was suspected", "assay": "Topical effect on contact hypersensitivity reaction to nickel sulphate patch", "assay_type": "in vivo, humans", "settings": "cream containing 100 μM peptide under occlusive dressing on the back, 2 hours before 5% nickel sulphate patch; examined 24 hours later", "experimental": "This study was carried out on 18 to 65 year-old volunteer patients in whom a contact allergy to nickel was suspected.\nOn day 0, there are applied with an occlusive dressing, to areas of the skin of the back, on the one hand a cream containing 100 μM of the peptide of formula II, and on the other hand the cream alone, without peptide, used as placebo.\nTwo hours later, patches impregnated with petroleum jelly containing nickel sulphate at a concentration of 5% are applied to the same areas of the skin, and also to an adjacent area that has not been pretreated.\n24 hours later, the patients are examined. Those who developed a contact hypersensitivity reaction over the area treated with the placebo (and also over the adjacent area which received only the application of nickel salt), and who are therefore people who were already sensitized to nickel, are 14 in number."}, "[3]": {"test_system": "female Balb/C mice", "assay": "Contact hypersensitivity to TNCB after sensitization, peptide injected i.v. before sensitization", "assay_type": "in vivo, mouse", "settings": "1.5 μg peptide i.v. (tail vein) 2 hours before TNCB sensitization; triggering 7 days later; measured 24 hours after triggering; positive controls 9.8×10^−2 mm, negative controls 1×10^−2 mm", "experimental": "The study is carried out on 7-to 10-week-old female Balb/C mice.\nA dose of 1.5 μg of the peptide studied (in solution in PBS buffer containing 0.1% of mouse serum) is injected into a vein of the tail of the mice 2 hours before the sensitization reaction.\nThe sensitization reaction consists in applying, with a brush, 100 μl of a solution containing 0.15% of TNCB in an acetone-olive oil (4:1) mixture to the shaved skin of the abdomen of the mice.\nThe triggering reaction is carried out 7 days after the sensitization reaction. This triggering reaction consists in applying to the two sides of an ear 10 microlitres of a solution containing 0.8% of TNCB in a vehicle consisting of the acetone-olive oil mixture already mentioned above.\nTo the other ear, only this mixture of acetone and olive oil is applied, for comparison.\nThe intensity of a possible contact hypersensitivity reaction is evaluated by estimating the size of the oedema of the ear treated with TNCB, in comparison with the ear treated with the vehicle alone. For that, the thickness of the ears is measured and compared with the aid of a micrometer screw. This measurement is carried out 24 hours after the triggering reaction.\nThe TNCB is also applied to the ear of control mice which have not been previously sensitized (negative controls)."}, "[4]": {"test_system": "female Balb/C mice", "assay": "Contact hypersensitivity to TNCB after a second sensitization (tolerance test)", "assay_type": "in vivo, mouse", "settings": "same mice re-sensitized with TNCB 14 days after the first experiment, no new peptide; triggering 7 days later; measured 24 hours later; positive controls 14×10^−2 mm", "experimental": "14 days after the end of the experiment described in a) above, the same mice are subjected to a new sensitization reaction on the shaved skin of the back, as described in a).\n7 days later, the triggering test is carried out by application of TNCB to the ear, and 24 hours later, the degree of swelling of the ear is measured.\nThe aim of this second experiment is to distinguish between a possible a specific temporary immunosuppression and a specific immunological tolerance."}}, "data": [{"substance": "Ac-D-Lys-D-Pro-D-Val-NH2 [II]", "values": [{"measurement": "increase in the thickness of the ear", "setting": "[1]", "value": "3×10^−2 mm"}, {"measurement": "people (out of 14 already sensitized to nickel) who did not develop any contact hypersensitivity reaction over the area treated with the peptide", "setting": "[2]", "value": 7}, {"measurement": "increase in the thickness of the ear", "setting": "[3]", "value": "about 2.5×10^−2 mm"}, {"measurement": "degree of swelling of the ear (increase in the thickness of the ear)", "setting": "[4]", "value": "~3.5×10^−2 mm"}]}]}
